Measured values: PMC8298375 (Naunyn-Schmiedeberg's Archives of Pharmacology, 2021)
Like-named read-outs stand apart in the source and are kept apart here.

Legend:
AChE [1] = assay type: in vivo, rat; conditions: scopolamine model; for % AChE Inhibition: plasma, listed as SCP + INRSM
Experimental: Samples were then centrifuged at 10,000 rpm for 5 min, and plasma was stored at − 70 °C until analysis.
(§1) Thiocholine, which was produced due to the hydrolysis of acetylthiocholine (ACTI) by AChE, was estimated by making it react with 5, 5′-dithiobis-(2-nitrobenzoic acid) (DTNB). The chemical, 5-thio-2-nitrobenzoic acid (yellow color complex), which was released due to reaction was estimated using a UV spectrophotometer in the range of 400 to 420 nm with maximal absorption at 412 nm. One hundred microliter of blank rat plasma was taken in the polypropylene vials. To this, 2.8 mL of phosphate buffer (0.01 M, pH 8) and 100 µL of DTNB reagents were added and mixed well. Then, 20 µL of ACTI (26.01 mg/mL of Milli-Q water) was added to the contents of the cuvette to initiate the enzyme reaction. The reaction kinetics was monitored at different time intervals (0, 1, 2, 3, 4 min), and absorbance was noted. 2.8 mL buffer (0.01 M, pH 8.0) and 100 µL DTNB reagent served as blank. Concentrations in the range of 0.03–30 mM were prepared using methanol as a diluent. […] Substrate concentration and reaction time were optimized such that sufficient concentration of ACTI is available to bind with the enzyme to initiate the reaction and also it should not saturate the enzyme. In this study, varying concentrations (100–1000 µM) of ACTI were prepared, and reaction kinetics were observed. In general, the maximum time should be either 2–4 min or even less, because the enzyme might undergo degradation. In the present study, up to 4 min of reaction kinetics (changing the optical density or absorbance) was measured. One unit of AChE activity is defined as the number of µmol of acetylthiocholine iodide hydrolyzed per minute. The specific activity of AChE is expressed in moles/min/mg of protein (Kaur et al. [2015]): AChEActivity=(abs.permin×1000×volumeofenzyme)/(13600×TRM)AChEActivity=abovevalue×1000(nanomolar/min/mL)
(§2) where 13,600 = molar extinction coefficient of DTNB: 1000-molar conversion factor: (TRM) total reaction mixture 3 mL: volume of enzyme (0.1 mL).

[2] = system: ICV colchicine-induced dementia rats; assay: Passive avoidance test, ICV colchicine-induced dementia (chronic model); assay type: in vivo, Wistar rats
Experimental: (§3) In the chronic model, the rats were trained for MWM and PAT tasks for the first 4 days followed by intracerebroventricular (i.c.v.) administration of colchicine on day 6. After establishing dementia on day 10 of the colchicine administration, the drug treatment was initiated from day 11 to 24. The effects of different drug treatments on dementia were assessed on days 14 and 21. On these particular days, the swim test was performed 15 min after the administration of different treatments and escape latencies; residence time and peripheral swim time were recorded (Nampoothiri [2017]). The retention trials for PAT on day 17 and 23 were performed on days 17 and 23, 15 min after the administration of the drug.
On the 6th day, surgery was performed as described (Bokare et al. [2018]). Rat was anesthetized with sodium pentobarbital (45 mg/kg, i.p.) and positioned in stereotaxic apparatus. The head was positioned in a frame, and a midline sagittal incision was made in the scalp. Two holes were drilled through the skull at coordinates (0.8 mm posterior to bregma, 1.8 mm lateral to the sagittal suture, and 3.6 mm beneath the cortical surface) to place the injection cannula. Rats were intracerebroventricularly infused with either artificial cerebrospinal fluid (ACSF; in mM: 147 NaCl, 2.9 KCl, 1.6 MgCl2, 1.7 CaCl2, and 2.2 dextrose) or 15 µg of colchicine in 5 µL ACSF using a Hamilton microsyringe positioned in the injection cannula. To promote back diffusion, the microsyringe was left in place for 2 min following injection. The scalp was then closed with a suture. After surgery, all animals received gentamicin (5 mg/kg, i.p.) to prevent sepsis. Special care was taken during the postoperative period to provide food and water inside the cage of the rat. In sham-operated rats, surgery was identical except for injection of the solution.
The passive avoidance apparatus consists of a larger illuminated compartment and a smaller dark compartment. Each consists of a square box, with a floor grid of 50 × 50 cm and wooden walls of 35-cm height in larger compartment. Larger box was illuminated by 15 W Philips CFL lamp. A smaller dark compartment of 15 × 15 cm with an electrified floor is connected to a constant current stimulator. An opening 6 × 6 cm in between the two compartments was closed using a transparent plexiglass sliding door. The test procedure was carried out in three phases, exploration, learning, and retention (Praveenkumar [2019]).
First day, the animal was placed in the center of the illuminated larger compartment facing away from the entrance to the small darker compartment and allowed to explore the apparatus, i.e., both compartments for 3 min. Total time spent in the larger and smaller compartments and the number of crossings (from larger to smaller compartments and vice versa; a measure of exploratory behavior) were noted. On the second day, animal was placed in the illuminated larger compartment facing away from the entrance to the darker compartment. Once the animal entered the darker compartment, the entrance to the larger compartment was closed, and three strong electric foot shocks (50 Hz, 0.5 mA, 2 s) with 10-s intervals were applied. On the third day, rats were placed in the illuminated larger compartment and allowed to explore both the compartments for 3 min. The parameters assessed are latency time to enter into darker compartment, time spent in the darker and brighter compartments, and the number of crossings between the compartments.

AChE [3] = assay type: in vivo, rat; conditions: colchicine model
Experimental: as §1, §2

[4] = system: ICV colchicine-induced dementia rats; assay: Locomotor activity (photoactometer), colchicine-induced dementia; assay type: in vivo, Wistar rats; conditions: colchicine model; Mean ± SEM; photo beam counts for 5 min; listed as COL + INRSM
Experimental: as §3
On the 6th day, surgery was performed as described (Bokare et al. [2018]). Rat was anesthetized with sodium pentobarbital (45 mg/kg, i.p.) and positioned in stereotaxic apparatus. The head was positioned in a frame, and a midline sagittal incision was made in the scalp. […]
Locomotor activity was assessed in animals using a digital photoactometer (INCO, India) which contains a cage that is 30-cm long and 30-cm deep with a wire mesh at the bottom. […] Then, the ambulatory movements were recorded for 5 min and expressed in terms of total photo beam counts for 5 min per animal.

[5] = 1st retention test, before colchicine administration, listed as COL + INRSM
[6] = 2nd retention test, day 17, listed as COL + INRSM
[7] = 3rd retention test, day 23, listed as COL + INRSM

CCN(C)C(=O)Oc1cccc([C@H](C)N(C)C)c1 [INRSM, rivastigmine]
peak AChE inhibition (Emax, maximum inhibition) in plasma (AChE [1]): 71.95% | time of peak AChE inhibition in plasma (AChE [1]): 10 min | % AChE Inhibition (AChE [1]; 0 min): 0.00 ± 0.0294% | % AChE Inhibition (AChE [1]; 5 min): 64.46 ± 0.1016% | % AChE Inhibition (AChE [1]; 10 min): 71.95 ± 0.0398% | % AChE Inhibition (AChE [1]; 15 min): 71.82 ± 0.0577 a,b,c % | % AChE Inhibition (AChE [1]; 20 min): 62.84 ± 0.0565% | % AChE Inhibition (AChE [1]; 30 min): 63.67 ± 0.0441% | % AChE Inhibition (AChE [1]; 45 min): 59.44 ± 0.0384% | % AChE Inhibition (AChE [1]; 60 min): 57.57 ± 0.0314% | % AChE Inhibition (AChE [1]; 90 min): 56.2 ± 0.317% | % AChE Inhibition (AChE [1]; 120 min): 51.35 ± 0.0329% | % AChE Inhibition (AChE [1]; 180 min): 49.26 ± 0.0264% | Retention test, Latency time, 1st [2, 5]: 122.3 ± 13.32 s | Retention test, No. of crossings, 1st [2, 5]: 2.67±0.56 | Retention test, Time spent in darker chamber, 1st [2, 5]: 49.5 ± 12.13 s | Retention test, Latency time, 2nd [2, 6]: 101.8 ± 10.46 s | Retention test, No. of crossings, 2nd [2, 6]: 3.50±0.56 | Retention test, Time spent in darker chamber, 2nd [2, 6]: 58.67 ± 10.25 s | Retention test, No. of crossings, 3rd ([2]; 3rd retention test, day 23): 3.17±0.48 | Retention test, Latency time, 3rd [2, 7]: 77.17 ± 11.18 s | Retention test, Time spent in darker chamber, 3rd [2, 7]: 67.17 ± 12.43 s | Acquisition test, 2nd day ([2]; colchicine model, 2nd day, listed as COL + INRSM): 11.07 ± 2.195 | peak AChE inhibition in rat plasma (AChE [3]): 76.75% | time of peak AChE inhibition in rat plasma (AChE [3]): 15 min | % AChE Inhibition in rat plasma (AChE [3]; 0 min, listed as COL + INRSM): 0.00 ± 0.0608% | % AChE Inhibition in rat plasma (AChE [3]; 5 min, listed as COL + INRSM): 75.74 ± 0.0358% | % AChE Inhibition in rat plasma (AChE [3]; 10 min, listed as COL + INRSM): 70.41 ± 0.0540% | % AChE Inhibition in rat plasma (AChE [3]; 20 min, listed as COL + INRSM): 73.66 ± 0.0482% | % AChE Inhibition in rat plasma (AChE [3]; 30 min, listed as COL + INRSM): 67.33 ± 0.0474% | % AChE Inhibition in rat plasma (AChE [3]; 45 min): 64.43 ± 0.0388% | % AChE Inhibition in rat plasma (AChE [3]; 90 min, listed as COL + INRSM): 55.83 ± 0.0401% | % AChE Inhibition in rat plasma (AChE [3]; 120 min, listed as COL + INRSM): 47.15 ± 0.0392% | % AChE Inhibition in rat plasma (AChE [3]; 180 min, listed as COL + INRSM): 41.37 ± 0.0410% | Score on actophotometer [4]: 265.66 ± 17.95
